Source: article PMC6278537, “Simultaneous Determination and Pharmacokinetics Study of Six Triterpenes in Rat Plasma by UHPLC-MS/MS after Oral Administration of Sanguisorba officinalis L. Extract” (Molecules, 2018)
Where two headings read alike, the source gives them in different places.

Assays:
[1] = Pharmacokinetic study in rats after single oral administration of S. officinalis extract (UHPLC-MS/MS of plasma); type: in vivo, Sprague-Dawley rats; conditions: for Cmax / AUC(0-inf) / AUC(0-t) / Tmax / half-life: rat plasma, single oral dose of S. officinalis extract 0.015 g/kg, n = 12, mean ± SD; for time of first peak of mean plasma concentration-time curve (double-peak phenomenon) / time of second peak of mean plasma concentration-time curve (double-peak phenomenon): rats, after oral administration of S. officinalis extract, Figure 4
Procedure: The UHPLC-MS/MS method was successfully used in the pharmacokinetic studies of six analytes after single dose administration of S. officinalis extract in rats. Based on the body surface area calculations of people and the animals and equivalent dose conversion calculations, the dosage of the rats was 0.015 g/kg. The half-time (t1/2), maximum plasma concentration (Cmax), time to reach Cmax (Tmax), and area under concentration–time curve (AUC0→t and AUC0→∞) were calculated via non-compartmental analysis (Table 6). The pharmacokinetic parameters of six components were reckoned by means of non-compartmental analysis using DAS 2.0 (Shanghai, China).
The experimental protocol was permitted by the Animal Ethics Committee of Harbin Medical University and conformed to the principles for the Care and Use of Laboratory Animals. Twelve male Sprague-Dawley rats (Weight 200 ± 20 g) were provided by the Laboratory Animal Centre of Harbin Medical University (Harbin, China). Each rat was fasted for 12 h before giving the drug and had free water supply even during the experiment. The S. officinalis extract was dissolved in water. A single dose of the S. officinalis extract (0.015 g/kg) was administrated to the rats. Blood (0.3 mL) was gained from the retinal venous plexus at 0, 0.083, 0.25, 0.5 1.0, 1.5, 2.0, 3.0, 4.0, 6.0, 8.0, 12.0 and 24.0 h after dosing. The plasma was immediately separated by centrifugation at 12000 rpm for 5 min at […].
Ten microliters of IS (1040.0 ng/mL) solution and 100 μL of methanol were added to 100 μL aliquot of plasma sample and vortexed for 30 s. The mixture was extracted with 3 mL ethyl acetate by being vortex-mixed for 1 min. The supernatant was separated and evaporated to dryness by N2 blowing at 40 °C after centrifuging at 3800 rpm for 5 min. The residue was reconstituted with 100 μL of methanol, and then vortex-mixed for 2 min and filtered by a 0.22 μm nylon 66 organic membrane. This was followed by injection of 5 μL aliquot of the solution into the UHPLC-MS/MS system (Agilent Technologies, Santa Clara, CA, USA).
The maximum concentration (Cmax) and the time to attain it (Tmax) were observed directly from the measured data. The elimination rate constant (Ke) was calculated by linear regression of the terminal points in a semi-log plot of the plasma concentration against time. The elimination half-life (t1/2) was calculated using the formula t1/2 = 0.693/Ke. The area under plasma concentration–time curve (AUC0→t) to the last measurable plasma concentration (Ct) was estimated by using the linear trapezoidal rule. The area under the plasma concentration–time curve to time infinity (AUC0→∞) was calculated as: AUC0→∞ = AUC0→t + Ct/Ke. The pharmacokinetic parameters of six analytes were reckoned by non-compartmental analysis using DAS 2.0 (Mathematical Pharmacology Professional Committee of China, Shanghai, China).

[2] = Stability of analytes in rat plasma under various storage conditions; type: in vitro ADME; conditions: for Stability Post-Preparation: 12 h after sample preparation at 4 °C; for Stability Short-Term / Stability Long-Term / Stability Three Freeze-Thaw: rat plasma; for Stability Short-Term: room temperature 4 h; for Stability Long-Term: storage for 2 weeks; for Stability Three Freeze-Thaw: three freeze–thaw cycles at −20 °C
Procedure: The stability of six analytes in rat plasma was estimated under different storage conditions. […] Post-preparative stability of analytes also implied that there was no obvious degradation when samples were kept at 4 °C for 12 h. In addition, all compounds remained stable for two weeks at […].
The stability of six compounds in rat plasma including freeze and thaw stability (three freeze–thaw cycles at −20 °C), long-term stability (storage for 2 weeks at −80 °C), room temperature stability (storage for 4 h at ambient temperature), and post-preparation stability […] All stability testing QC samples were determined by using the calibration curve of freshly prepared standard samples.

[3] = male, Sprague-Dawley, rat, plasma, po, 0.015 g/kg, read-out: Cmax

| SMILES | Cmax [1, 3] | AUC(0-inf) ([1]; male, Sprague-Dawley) | AUC(0-t) ([1]; male, Sprague-Dawley) | Tmax ([1]; male, Sprague-Dawley) | half-life ([1]; male, Sprague-Dawley) | Cmax [1] | time of first peak of mean plasma concentration-time curve (double-peak phenomenon) [1] | time of second peak of mean plasma concentration-time curve (double-peak phenomenon) [1] | Stability Post-Preparation ([2]; high QC spiked concentration) | Stability Post-Preparation ([2]; low QC spiked concentration) | Stability Post-Preparation ([2]; medium QC spiked concentration) | Stability Short-Term ([2]; high QC spiked concentration) | Stability Short-Term ([2]; low QC spiked concentration) | Stability Short-Term ([2]; medium QC spiked concentration) | Stability Long-Term ([2]; high QC spiked concentration) | Stability Long-Term ([2]; low QC spiked concentration) | Stability Long-Term ([2]; medium QC spiked concentration) | Stability Three Freeze-Thaw ([2]; high QC spiked concentration) | Stability Three Freeze-Thaw ([2]; low QC spiked concentration) | Stability Three Freeze-Thaw ([2]; medium QC spiked concentration) |
| --- | --- | --- | --- | --- | --- | --- | --- | --- | --- | --- | --- | --- | --- | --- | --- | --- | --- | --- | --- | --- |
| CC1=C2C3=CCC4C5(C)CCC(OC6OCC(O)C(O)C6O)C(C)(C)C5CCC4(C)C3(C)CCC2(C(=O)OC2OC(CO)C(O)C(O)C2O)CCC1C [III, 3β-[(α-L-arabinopyranosyl)oxy]-urs-12,18(19)-dien-28-oic acid β-D-glucopyranosyl ester] | 318 ± 47.6 ng/mL | 1230 ± 193 ng·h/mL | 1140 ± 150 ng·h/mL | 1.33 ± 0.26 h | 6.86 ± 2.91 h | 317.9 ± 47.6 ng/mL | 0.25 h | < 1.5 h | 1.10 % RE | −1.34 % RE | −2.48 % RE | −2.42 % RE | −5.54 % RE | −7.66 % RE | 4.31 % RE | 3.75 % RE | −5.18 % RE | −3.38 % RE | −7.72 % RE | −5.29 % RE |
| C[C@@H]1CC[C@]2(C(=O)O[C@@H]3O[C@H](CO)[C@@H](O)[C@H](O)[C@H]3O)CC[C@]3(C)C(=CC[C@@H]4[C@@]5(C)C[C@@H](O)[C@H](O)C(C)(C)[C@@H]5CC[C@]43C)[C@@H]2[C@]1(C)O [IV, rosamultin] | 315 ± 22.5 ng/mL | 1300 ± 193 ng·h/mL | 1210 ± 120 ng·h/mL | 1.58 ± 0.2 h | 7.32 ± 2.74 h | 314.5 ± 22.5 ng/mL |  |  | 3.95 % RE | 7.45 % RE | 2.23 % RE | 4.55 % RE | 9.63 % RE | 7.81 % RE | −6.75 % RE | 4.88 % RE | 2.71 % RE | 2.07 % RE | 6.80 % RE | 3.84 % RE |
| C=C1[C@H]2C3=CC[C@@H]4[C@@]5(C)C[C@@H](O)[C@@H](O)C(C)(C)[C@@H]5CC[C@@]4(C)[C@]3(C)CC[C@@]2(C(=O)O[C@@H]2O[C@H](CO)[C@@H](O)[C@H](O)[C@H]2O)CC[C@H]1C [VI, alpinoside] | 243 ± 19.9 ng/mL | 1110 ± 98.1 ng·h/mL | 1030 ± 73.4 ng·h/mL | 1.17 ± 0.26 h | 7.72 ± 1.22 h | 243.2 ± 19.9 ng/mL | 0.5 to 1.5 h | 4 to 8 h | 4.85 % RE | 3.18 % RE | 9.78 % RE | 3.26 % RE | −10.78 % RE | 2.34 % RE | 5.28 % RE | −2.07 % RE | 2.79 % RE | −1.64 % RE | 2.74 % RE | 6.61 % RE |
| C[C@@H]1CC[C@]2(C(=O)O[C@@H]3O[C@H](CO)[C@@H](O)[C@H](O)[C@H]3O)CC[C@]3(C)C(=CC[C@@H]4[C@@]5(C)CC[C@H](O[C@@H]6OC[C@H](O)[C@H](O)[C@H]6O)C(C)(C)[C@@H]5CC[C@]43C)[C@@H]2[C@]1(C)O [I, ziyuglycoside I] | 745 ± 85.7 ng/mL | 3320 ± 429 ng·h/mL | 2880 ± 303 ng·h/mL | 0.92 ± 0.2 h | 11.6 ± 3.07 h | 744.7 ± 85.7 ng/mL | 0.5 to 1.5 h | 4 to 8 h | −9.95 % RE | −2.07 % RE | 3.53 % RE | 2.44 % RE | 4.27 % RE | 6.27 % RE | 2.03 % RE | 2.43 % RE | −6.57 % RE | 2.51 % RE | 6.07 % RE | 10.19 % RE |
| CC1CCC2(C(=O)O)CCC3(C)C(=CCC4C5(C)C(O)C(O)C(O)C(C)(C)C5CCC43C)C2C1(C)O (stereo not drawn) [V, 1β-hydroxyeuscaphic acid] | 212 ± 11.8 ng/mL | 794 ± 152 ng·h/mL | 733 ± 94.1 ng·h/mL | 0.58 ± 0.2 h | 7.35 ± 3.95 h | 211.5 ± 11.8 ng/mL |  |  | −3.03 % RE | 8.48 % RE | 5.23 % RE | 2.56 % RE | −4.77 % RE | −3.67 % RE | 3.06 % RE | 9.86 % RE | 6.95 % RE | 2.28 % RE | −9.67 % RE | 3.99 % RE |
| CC1CCC2(C(=O)OC3OC(CO)C(O)C(O)C3O)CCC3(C)C(=CCC4C5(C)CCC(O)C(C)(C)C5CCC43C)C2C1(C)O [II, 3β,19α-dihydroxyurs-12-en-28-oic-acid 28-β-D-glucopyranosyl ester] | 527 ± 64 ng/mL | 2660 ± 601 ng·h/mL | 2300 ± 417 ng·h/mL | 0.83 ± 0.26 h | 8.99 ± 3.04 h | 526.6 ± 64.0 ng/mL | 0.5 to 1.5 h | 4 to 8 h | 3.04 % RE | 5.22 % RE | 4.11 % RE | 2.47 % RE | −5.94 % RE | 4.60 % RE | 2.24 % RE | −3.19 % RE | 2.08 % RE | 2.74 % RE | 2.66 % RE | −2.95 % RE |
